Assay results from patent publication US20150368297A1, “Novel Peptide Compound for Inhibiting Restenosis and Promoting Re-Endothelialization and Method for Preparing the Same” (Chonnam National University Hospital, priority 2014, published 2015).

System: vascular smooth muscle cell (SMC)
Experiment: Effect on proliferation of vascular smooth muscle cell (SMC), XTT assay
Assay type: cell-based
Settings: 1 uM compound; measured at 1, 4 and 7 days; versus non-treated control; FIG. 1
Procedure: As cells used in a cell culture, the vascular smooth muscle cell (SMC) which is a smooth muscle cell, and the human umbilical vein endothelial cell (HUVEC) which is the cell for promoting vascular re-endothelialization were purchased from Korea Cell Line Bank, respectively. The cell culture was performed by culturing the vascular smooth muscle cell (SMC) and the human umbilical vein endothelial cell (HUVEC) in Dulbecoco's modified eagle medium (DMEM) with 10% fetal bovine serum (FBS) under conditions of 37° C. and 5% CO2. […]
(§1) 5×10^4 of SMC cells cultured according to Example 2 were cultured in the 24-well cell culture plate and then treated with 1 uM of the peptide compound prepared by Example 2 (hereinafter, referred to as ‘EVR-P’). […] After the reaction, 200 ul of the culture medium was transferred from each well to a 96 well cell culture dish, and degree of color change was measured from absorbance at a 450 nm wavelength by a spectroscopy.
as §1, with “the known Everolimus (EVR)(LC Laboratories).” for “the peptide compound prepared by Example 2 (hereinafter, referred to as ‘EVR-P’).”, “to the” for “to a”

CO[C@H]1C[C@@H]2CC[C@@H](C)[C@@](O)(O2)C(=O)C(=O)N2CCCC[C@H]2C(=O)O[C@H]([C@H](C)C[C@@H]2CC[C@@H](OCCO)[C@H](OC)C2)CC(=O)[C@H](C)/C=C(\C)[C@@H](O)[C@@H](OC)C(=O)[C@H](C)C[C@H](C)/C=C/C=C/C=C/1C [EVR, Everolimus]
SMC cell proliferation (XTT, absorbance at 450 nm): cell proliferation was inhibited
